What follows are compounds tested against T1, GLP-1R (Homo sapiens, UniProt P43220) (assay: GLP-1R activation cAMP assay (Assay 1 or Assay 2)). Details: cAMP increase in CHO cells stably expressing GLP-1R; compounds run on one of the two cAMP assays.
T1 construct: host or cells: CHO cells
Type: cell-based
Summary of the method: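 CHO cells stably expressing human GLP-1R were incubated 1 h in HBSS/20 mM HEPES/0.1% BSA, then exposed to 10-point agonist dilutions for 30 min at 37 °C. cAMP increase was measured with an HTRF Gs dynamic kit; EC50 from sigmoidal fit of response versus log concentration.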

T1 sequence (P43220 24-463): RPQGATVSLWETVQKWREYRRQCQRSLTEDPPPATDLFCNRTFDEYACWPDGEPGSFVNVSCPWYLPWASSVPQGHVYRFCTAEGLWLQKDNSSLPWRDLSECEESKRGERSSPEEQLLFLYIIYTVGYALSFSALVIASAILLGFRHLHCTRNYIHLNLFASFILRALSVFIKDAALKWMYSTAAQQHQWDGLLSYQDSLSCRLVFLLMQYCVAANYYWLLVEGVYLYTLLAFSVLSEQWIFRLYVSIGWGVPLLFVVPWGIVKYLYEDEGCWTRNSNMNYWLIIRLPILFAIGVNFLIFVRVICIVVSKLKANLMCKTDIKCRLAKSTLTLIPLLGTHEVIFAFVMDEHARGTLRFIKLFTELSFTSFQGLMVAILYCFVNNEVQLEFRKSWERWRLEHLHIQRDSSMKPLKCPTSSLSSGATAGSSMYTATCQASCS

| EC50 | Structure (SMILES) |
| --- | --- |
| 0.14 nM | O=C(O)c1ccc2nc(Cc3cc(F)c(-c4cccc(OCc5ncc(-c6cncnc6)s5)n4)cc3F)n(C[C@@H]3CCO3)c2c1 [Example 105, (S)-2-(2,5-difluoro-4-(6-((5-(pyrimidin-5-yl)thiazol-2-yl)methoxy)pyridin-2-yl)benzyl)-1-(oxetan-2-ylmethyl)-1H-benzo[d]imidazole-6-carboxylic acid] |
| 0.126 nM | O=C(O)c1ccc2nc(Cc3cc(F)c(-c4cccc(OCc5ncc(C#Cc6cnsc6)cc5F)n4)cc3F)n(C[C@@H]3CCO3)c2c1 [Example 285, (S)-2-(2,5-difluoro-4-(6-((3-fluoro-5-(isothiazol-4-ylethynyl)pyridin-2-yl)methoxy)pyridin-2-yl)benzyl)-1-(oxetan-2-ylmethyl)-1H-benzo[d]imidazole-6-carboxylic acid] |
| 6.32 nM | Cc1cn(C)nc1COc1cccc(-c2cc(F)c(Cc3nc4ccc(C(=O)O)cc4n3C[C@@H]3CCO3)cc2F)n1 [Example 77, (S)-2-(4-(6-((1,4-dimethyl-1H-pyrazol-3-yl)methoxy)pyridin-2-yl)-2,5-difluorobenzyl)-1-(oxetan-2-ylmethyl)-1H-benzo[d]imidazole-6-carboxylic acid] |
| 0.508 nM | Cn1ccc(C#Cc2ccc(COc3cccc(-c4cc(F)c(Cc5nc6ccc(C(=O)O)cc6n5C[C@@H]5CCO5)cc4F)n3)c(F)c2)cc1=O [Example 357, (S)-2-(2,5-difluoro-4-(6-((2-fluoro-4-((1-methyl-2-oxo-1,2-dihydropyridin-4-yl)ethynyl)benzyl)oxy)pyridin-2-yl)benzyl)-1-(oxetan-2-ylmethyl)-1H-benzo[d]imidazole-6-carboxylic acid] |
| 0.05 nM | O=C(O)c1cc(F)c2nc(Cc3cc(F)c(-c4cccc(OCc5ncc(-c6cnn(C(F)F)c6)s5)n4)cc3F)n(C[C@@H]3CCO3)c2c1 [Example 85, (S)-2-(4-(6-((5-(1-(difluoromethyl)-1H-pyrazol-4-yl)thiazol-2-yl)methoxy)pyridin-2-yl)-2,5-difluorobenzyl)-4-fluoro-1-(oxetan-2-ylmethyl)-1H-benzo[d]imidazole-6-carboxylic acid] |
| 0.622 nM | Cc1nc(C)c(COc2cccc(-c3cc(F)c(Cc4nc5ccc(C(=O)O)cc5n4C[C@@H]4CCO4)cc3F)n2)s1 [Example 354, (S)-2-(4-(6-((2,4-dimethylthiazol-5-yl)methoxy)pyridin-2-yl)-2,5-difluorobenzyl)-1-(oxetan-2-ylmethyl)-1H-benzo[d]imidazole-6-carboxylic acid] |
| 0.567 nM | Cn1cc(C#Cc2cnc(COc3cccc(-c4cc(F)c(Cc5nc6ccc(C(=O)O)cc6n5C[C@@H]5CCO5)cc4F)n3)c(Cl)c2)cn1 [Example 302, (S)-2-(4-(6-((3-chloro-5-((1-methyl-1H-pyrazol-4-yl)ethynyl)pyridin-2-yl)methoxy)pyridin-2-yl)-2,5-difluorobenzyl)-1-(oxetan-2-ylmethyl)-1H-benzo[d]imidazole-6-carboxylic acid] |
| 8.46 nM | Cn1nc(COc2cccc(-c3cc(F)c(Cc4nc5ccc(C(=O)O)cc5n4C[C@@H]4CCO4)cc3F)n2)cc1CC#N [Example 37, (S)-2-(4-(6-((5-(cyanomethyl)-1-methyl-1H-pyrazol-3-yl)methoxy)pyridin-2-yl)-2,5-difluorobenzyl)-1-(oxetan-2-ylmethyl)-1H-benzo[d]imidazole-6-carboxylic acid] |
| 0.86 nM | Cn1nc(COc2cccc(-c3cc(F)c(Cc4nc5ccc(C(=O)O)cc5n4C[C@@H]4CCO4)cc3F)n2)cc1C1CC1 [Example 39, (S)-2-(4-(6-((5-cyclopropyl-1-methyl-1H-pyrazol-3-yl)methoxy)pyridin-2-yl)-2,5-difluorobenzyl)-1-(oxetan-2-ylmethyl)-1H-benzo[d]imidazole-6-carboxylic acid] |
| 0.257 nM | COc1nnc(COc2cc(-c3cc(F)c(Cc4nc5c(F)cc(C(=O)O)cc5n4C[C@@H]4CCO4)cc3F)ccc2F)s1 [Example 389, (S)-4-fluoro-1-(oxetan-2-ylmethyl)-2-((2,4′,5-trifluoro-3′-((5-methoxy-1,3,4-thiadiazol-2-yl)methoxy)-[1,1′-biphenyl]-4-yl)methyl)-1H-benzo[d]imidazole-6-carboxylic acid] |
| 0.3 nM | CNC(=O)c1ccc(COc2cccc(-c3cc(F)c(Cc4nc5ccc(C(=O)O)cc5n4C[C@@H]4CCO4)cc3F)n2)cn1 [Example 43, (S)-2-(2,5-difluoro-4-(6-((6-(methylcarbamoyl)pyridin-3-yl)methoxy)pyridin-2-yl)benzyl)-1-(oxetan-2-ylmethyl)-1H-benzo[d]imidazole-6-carboxylic acid] |
| 0.206 nM | Cn1cc(C#Cc2cnc(COc3cccc(-c4cc(F)c(Cc5nc6c(F)cc(C(=O)O)cc6n5C[C@@H]5CCO5)cc4F)n3)c(F)c2)cn1 [Example 392, (S)-2-(2,5-difluoro-4-(6-((3-fluoro-5-((1-methyl-1H-pyrazol-4-yl)ethynyl)pyridin-2-yl)methoxy)pyridin-2-yl)benzyl)-4-fluoro-1-(oxetan-2-ylmethyl)-1H-benzo[d]imidazole-6-carboxylic acid] |
| 0.349 nM | O=C(O)c1ccc2nc(Cc3cc(F)c(-c4cccc(OCc5ncc(C#CC6CCOC6)s5)n4)cc3F)n(C[C@@H]3CCO3)c2c1 (stereo partly drawn) [Example 322, 2-(2,5-difluoro-4-(6-((5-((tetrahydrofuran-3-yl)ethynyl)thiazol-2-yl)methoxy)pyridin-2-yl)benzyl)-1-(((S)-oxetan-2-yl)methyl)-1H-benzo[d]imidazole-6-carboxylic acid] |
| 2.28 nM | O=C(O)c1ccc2nc(Cc3cc(F)c(-c4cccc(OCc5cnc(C(=O)NC6CCCC6)cc5F)n4)cc3F)n(C[C@@H]3CCO3)c2c1 [Example 244, (S)-2-(4-(6-((6-(cyclopentylcarbamoyl)-4-fluoropyridin-3-yl)methoxy)pyridin-2-yl)-2,5-difluorobenzyl)-1-(oxetan-2-ylmethyl)-1H-benzo[d]imidazole-6-carboxylic acid] |
| 0.18 nM | O=C(O)c1ccc2nc(Cc3cc(F)c(-c4cccc(OCc5ccc(-c6cn(C7COC7)nn6)cc5F)n4)cc3F)n(C[C@@H]3CCO3)c2c1 [Example 215, (S)-2-(2,5-difluoro-4-(6-((2-fluoro-4-(1-(oxetan-3-yl)-1H-1,2,3-triazol-4-yl)benzyl)oxy)pyridin-2-yl)benzyl)-1-(oxetan-2-ylmethyl)-1H-benzo[d]imidazole-6-carboxylic acid] |
| 0.28 nM | O=C(O)c1ccc2nc(Cc3cc(F)c(-c4cccc(OCc5ccc(C#Cc6cccnc6)cc5F)n4)cc3F)n(C[C@@H]3CCO3)c2c1 [Example 139, (S)-2-(2,5-difluoro-4-(6-((2-fluoro-4-(pyridin-3-ylethynyl)benzyl)oxy)pyridin-2-yl)benzyl)-1-(oxetan-2-ylmethyl)-1H-benzo[d]imidazole-6-carboxylic acid] |
| 0.323 nM | CCOc1nc(C)c(COc2cccc(-c3cc(F)c(Cc4nc5ccc(C(=O)O)cc5n4C[C@@H]4CCO4)cc3F)n2)s1 [Example 349, (S)-2-(4-(6-((2-ethoxy-4-methylthiazol-5-yl)methoxy)pyridin-2-yl)-2,5-difluorobenzyl)-1-(oxetan-2-ylmethyl)-1H-benzo[d]imidazole-6-carboxylic acid] |
| 0.18 nM | N#CC1(Cn2cc(-c3ccc(COc4cccc(-c5cc(F)c(Cc6nc7ccc(C(=O)O)cc7n6C[C@@H]6CCO6)cc5F)n4)c(F)c3)cn2)CC1 [Example 159, (S)-2-(4-(6-((4-(1-((1-cyanocyclopropyl)methyl)-1H-pyrazol-4-yl)-2-fluorobenzyl)oxy)pyridin-2-yl)-2,5-difluorobenzyl)-1-(oxetan-2-ylmethyl)-1H-benzo[d]imidazole-6-carboxylic acid] |
| 2.63 nM | CCc1nnc(COc2cccc(-c3cc(F)c(Cc4nc5ccc(C(=O)O)cc5n4C[C@@H]4CCO4)cc3F)n2)s1 [Example 299, (S)-2-(4-(6-((5-ethyl-1,3,4-thiadiazol-2-yl)methoxy)pyridin-2-yl)-2,5-difluorobenzyl)-1-(oxetan-2-ylmethyl)-1H-benzo[d]imidazole-6-carboxylic acid] |
| 0.524 nM | COc1cc(C#Cc2cnn(C)c2)ccc1COc1cccc(-c2cc(F)c(Cc3nc4ccc(C(=O)O)cc4n3C[C@@H]3CCO3)cc2F)n1 [Example 304, (S)-2-(2,5-difluoro-4-(6-((2-methoxy-4-((1-methyl-1H-pyrazol-4-yl)ethynyl)benzyl)oxy)pyridin-2-yl)benzyl)-1-(oxetan-2-ylmethyl)-1H-benzo[d]imidazole-6-carboxylic acid] |
| 0.2 nM | O=C(O)c1ccc2nc(Cc3cc(F)c(-c4cccc(OCc5ccc(-c6cnc(C7CC7)o6)cc5F)n4)cc3F)n(C[C@@H]3CCO3)c2c1 [Example 160, (S)-2-(4-(6-((4-(2-cyclopropyloxazol-5-yl)-2-fluorobenzyl)oxy)pyridin-2-yl)-2,5-difluorobenzyl)-1-(oxetan-2-ylmethyl)-1H-benzo[d]imidazole-6-carboxylic acid] |
| 0.12 nM | N#CC1(NC(=O)c2cc(Cl)c(COc3cccc(-c4cc(F)c(Cc5nc6ccc(C(=O)O)cc6n5C[C@@H]5CCO5)cc4F)n3)cn2)CC1 [Example 184, (S)-2-(4-(6-((4-chloro-6-((1-cyanocyclopropyl)carbamoyl)pyridin-3-yl)methoxy)pyridin-2-yl)-2,5-difluorobenzyl)-1-(oxetan-2-ylmethyl)-1H-benzo[d]imidazole-6-carboxylic acid] |
| 1.2 nM | Cc1cc(Cc2nc3ccc(C(=O)O)cc3n2[C@@H]2COCC2(C)C)c(F)cc1-c1ccc(F)c(OCc2ncc(C(C)(F)F)s2)n1 [Example 337, (S)-2-(4-(6-((5-(1,1-difluoroethyl)thiazol-2-yl)methoxy)-5-fluoropyridin-2-yl)-2-fluoro-5-methylbenzyl)-1-(4,4-dimethyltetrahydrofuran-3-yl)-1H-benzo[d]imidazole-6-carboxylic acid] |

Source: US20250312352A1, “GLP-1R MODULATING COMPOUNDS” (Gilead Sciences, Inc., priority 2021, published 2025)
